Data from PubChem BioAssay AID602351 (The Scripps Research Institute Molecular Screening Center, 2012).
Activity calls are given as the source filed them. The rule behind the calls is not given here.

Legend:
Assay in all cases: mouse tissue hydrolase off-target profiling – ABPP MudPIT, LC-MS, ABHD6 analysis, in vivo study for DAGLb inhibitor project, late-stage follow-up (AID 602351)
Dpp8 = conditions: serine hydrolase spectral counts, stronger effect = lower value
Acot2 = conditions: serine hydrolase spectral counts, stronger effect = lower value
Gzma = conditions: serine hydrolase spectral counts, stronger effect = lower value
Pla2g15 = conditions: serine hydrolase spectral counts, stronger effect = lower value
Dpp4 = conditions: serine hydrolase spectral counts, stronger effect = lower value
Abhd11 = conditions: serine hydrolase spectral counts, stronger effect = lower value
Ppt2 = conditions: serine hydrolase spectral counts, stronger effect = lower value
[1] = target: Platelet-activating factor acetylhydrolase 2, cytoplasmic (Mus musculus) (UniProt Q8VDG7); conditions: serine hydrolase spectral counts
Iah1 = conditions: serine hydrolase spectral counts, stronger effect = lower value
Fam108b = conditions: serine hydrolase spectral counts, stronger effect = lower value
Dpp7 = conditions: serine hydrolase spectral counts, stronger effect = lower value
Pnpla6 = conditions: serine hydrolase spectral counts, stronger effect = lower value
Pnpla7 = conditions: serine hydrolase spectral counts, stronger effect = lower value
Prcp = conditions: serine hydrolase spectral counts, stronger effect = lower value
Lipa = conditions: serine hydrolase spectral counts, stronger effect = lower value
Abhd12 = conditions: serine hydrolase spectral counts, stronger effect = lower value
Dpp9 = conditions: serine hydrolase spectral counts, stronger effect = lower value
Elane = conditions: serine hydrolase spectral counts, stronger effect = lower value
Tpp2 = conditions: serine hydrolase spectral counts, stronger effect = lower value
Lipe = conditions: serine hydrolase spectral counts, stronger effect = lower value
[2] = target: Acyl-protein thioesterase 1 (Mus musculus) (UniProt P97823); conditions: serine hydrolase spectral counts
Acot1 = conditions: serine hydrolase spectral counts, stronger effect = lower value
Lypla2 = conditions: serine hydrolase spectral counts, stronger effect = lower value
[3] = target: Platelet-activating factor acetylhydrolase (Mus musculus) (UniProt Q60963); conditions: serine hydrolase spectral counts
Lpl = conditions: serine hydrolase spectral counts, stronger effect = lower value
Prepl = conditions: serine hydrolase spectral counts, stronger effect = lower value
[4] = target: Palmitoyl-protein thioesterase ABHD10, mitochondrial (Mus musculus) (UniProt Q6PE15); conditions: serine hydrolase spectral counts, stronger effect = lower value
Magl = conditions: serine hydrolase spectral counts, stronger effect = lower value
Pafah1b2 = conditions: serine hydrolase spectral counts, stronger effect = lower value
Ctsa = conditions: serine hydrolase spectral counts, stronger effect = lower value
[5] = target: Diacylglycerol lipase-beta (Mus musculus) (UniProt Q91WC9); conditions: serine hydrolase spectral counts, Daglb, stronger effect = lower value
Aoah = conditions: serine hydrolase spectral counts, stronger effect = lower value
Apeh = conditions: serine hydrolase spectral counts, stronger effect = lower value
Pafah1b3 = conditions: serine hydrolase spectral counts, stronger effect = lower value
[6] = target: Monoacylglycerol lipase ABHD6 (Mus musculus) (UniProt Q8R2Y0); conditions: serine hydrolase spectral counts, stronger effect = lower value
Fasn = conditions: serine hydrolase spectral counts, stronger effect = lower value
KIAA1363 = conditions: serine hydrolase spectral counts, stronger effect = lower value
Ctsg = conditions: serine hydrolase spectral counts, stronger effect = lower value
[7] = significance of hydrolase inhibition

Sequence of Diacylglycerol lipase-beta (Mus musculus) (Q91WC9 whole entry, looked up): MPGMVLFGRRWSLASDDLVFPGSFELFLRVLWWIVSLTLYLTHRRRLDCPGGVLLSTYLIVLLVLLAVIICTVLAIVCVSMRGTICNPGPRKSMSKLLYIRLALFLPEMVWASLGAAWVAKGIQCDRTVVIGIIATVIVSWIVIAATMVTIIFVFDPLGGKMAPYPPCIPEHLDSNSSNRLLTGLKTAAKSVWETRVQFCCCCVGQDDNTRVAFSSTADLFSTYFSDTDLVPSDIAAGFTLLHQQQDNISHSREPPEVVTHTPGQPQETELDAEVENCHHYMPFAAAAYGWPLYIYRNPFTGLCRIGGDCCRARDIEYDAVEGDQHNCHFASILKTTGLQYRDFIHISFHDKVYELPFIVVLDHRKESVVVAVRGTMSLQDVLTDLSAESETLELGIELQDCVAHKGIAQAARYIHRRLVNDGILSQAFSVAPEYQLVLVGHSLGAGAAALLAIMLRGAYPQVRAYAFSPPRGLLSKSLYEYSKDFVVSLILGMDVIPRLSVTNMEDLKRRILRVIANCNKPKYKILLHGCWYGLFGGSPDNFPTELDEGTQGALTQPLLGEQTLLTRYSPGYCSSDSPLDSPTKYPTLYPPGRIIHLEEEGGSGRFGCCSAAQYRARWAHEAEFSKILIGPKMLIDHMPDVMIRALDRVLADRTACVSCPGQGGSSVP
Sequence of Acyl-protein thioesterase 1 (Mus musculus) (P97823 whole entry, looked up): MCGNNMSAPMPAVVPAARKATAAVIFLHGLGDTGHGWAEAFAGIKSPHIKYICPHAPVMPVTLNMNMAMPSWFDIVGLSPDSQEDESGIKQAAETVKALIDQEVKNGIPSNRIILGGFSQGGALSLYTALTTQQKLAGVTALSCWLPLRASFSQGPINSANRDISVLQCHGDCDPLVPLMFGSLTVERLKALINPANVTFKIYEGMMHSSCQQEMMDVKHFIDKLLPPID
Sequence of Palmitoyl-protein thioesterase ABHD10, mitochondrial (Mus musculus) (Q6PE15 whole entry, looked up): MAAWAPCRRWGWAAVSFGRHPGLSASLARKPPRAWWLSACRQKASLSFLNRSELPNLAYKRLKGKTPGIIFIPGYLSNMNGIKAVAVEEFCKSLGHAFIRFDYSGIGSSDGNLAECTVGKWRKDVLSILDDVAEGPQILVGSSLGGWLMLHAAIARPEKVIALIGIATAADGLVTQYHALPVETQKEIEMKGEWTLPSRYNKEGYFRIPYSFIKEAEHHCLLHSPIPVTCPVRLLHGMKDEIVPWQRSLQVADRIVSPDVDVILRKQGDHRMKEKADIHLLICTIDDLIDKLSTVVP
Sequence of Monoacylglycerol lipase ABHD6 (Mus musculus) (Q8R2Y0 whole entry, looked up): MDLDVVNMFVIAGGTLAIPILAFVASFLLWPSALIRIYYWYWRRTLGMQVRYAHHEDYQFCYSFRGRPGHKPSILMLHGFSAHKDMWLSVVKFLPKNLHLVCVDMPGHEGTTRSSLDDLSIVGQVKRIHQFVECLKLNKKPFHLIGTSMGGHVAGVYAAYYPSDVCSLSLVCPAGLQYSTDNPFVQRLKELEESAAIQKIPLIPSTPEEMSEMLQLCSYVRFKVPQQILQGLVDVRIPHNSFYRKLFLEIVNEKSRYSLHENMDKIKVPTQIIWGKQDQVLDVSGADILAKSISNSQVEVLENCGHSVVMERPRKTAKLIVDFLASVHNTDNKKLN
Sequence of Platelet-activating factor acetylhydrolase (Mus musculus) (Q60963 whole entry, looked up): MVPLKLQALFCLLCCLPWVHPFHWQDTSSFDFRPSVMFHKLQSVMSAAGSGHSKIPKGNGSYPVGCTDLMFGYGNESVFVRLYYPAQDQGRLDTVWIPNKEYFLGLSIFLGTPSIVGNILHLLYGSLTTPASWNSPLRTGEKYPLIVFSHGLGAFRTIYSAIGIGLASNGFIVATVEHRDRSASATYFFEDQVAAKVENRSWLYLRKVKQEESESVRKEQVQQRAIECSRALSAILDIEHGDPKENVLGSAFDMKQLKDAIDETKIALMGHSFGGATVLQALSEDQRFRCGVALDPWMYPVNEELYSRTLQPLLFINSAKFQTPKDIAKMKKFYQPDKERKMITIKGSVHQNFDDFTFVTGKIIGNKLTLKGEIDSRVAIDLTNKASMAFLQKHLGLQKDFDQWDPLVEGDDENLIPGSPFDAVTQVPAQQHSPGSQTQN
Sequence of Platelet-activating factor acetylhydrolase 2, cytoplasmic (Mus musculus) (Q8VDG7 whole entry, looked up): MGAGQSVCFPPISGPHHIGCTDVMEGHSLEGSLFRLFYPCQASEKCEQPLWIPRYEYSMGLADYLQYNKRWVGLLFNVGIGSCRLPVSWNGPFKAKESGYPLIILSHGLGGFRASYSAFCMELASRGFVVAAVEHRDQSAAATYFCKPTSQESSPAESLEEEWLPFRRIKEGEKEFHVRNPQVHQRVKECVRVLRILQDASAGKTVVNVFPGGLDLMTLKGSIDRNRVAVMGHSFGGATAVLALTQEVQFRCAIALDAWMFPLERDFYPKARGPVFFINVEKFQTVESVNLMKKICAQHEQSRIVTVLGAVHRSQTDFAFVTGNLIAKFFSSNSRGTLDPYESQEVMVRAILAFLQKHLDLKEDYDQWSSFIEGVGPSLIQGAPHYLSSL

- spectral counts, test compound (Dpp8): 31 (inactive)
- p value vs vehicle (Dpp8; [7]): 0.639
- spectral counts, test compound (Acot2): 41.7 (inactive)
- p value vs vehicle (Acot2; [7]): 0.041
- spectral counts, test compound (Gzma): 5.33 (inactive)
- p value vs vehicle (Gzma; [7]): 0.275
- spectral counts, test compound (Pla2g15): 29 (inactive)
- p value vs vehicle (Pla2g15; [7]): 0.012
- spectral counts, test compound (Dpp4): 42 (inactive)
- p value vs vehicle (Dpp4; [7]): 0.1
- spectral counts, test compound (Abhd11): 6.67 (inactive)
- p value vs vehicle (Abhd11; [7]): 0.422
- spectral counts, test compound (Ppt2): 5.67 (inactive)
- p value vs vehicle (Ppt2; [7]): 0.451
- spectral counts, test compound ([1]; Pafah2, stronger effect = lower value): 16 (inactive)
- p value vs vehicle ([1]; Pafah2, significance of hydrolase inhibition, stronger effect = lower value): 0.202
- spectral counts, test compound (Iah1): 5.67 (inactive)
- p value vs vehicle (Iah1; [7]): 0.442
- spectral counts, test compound (Fam108b): 13.7 (inactive)
- p value vs vehicle (Fam108b; [7]): 0.018
- spectral counts, test compound (Dpp7): 16.3 (inactive)
- p value vs vehicle (Dpp7; [7]): 0.826
- spectral counts, test compound (Pnpla6): 4 (inactive)
- p value vs vehicle (Pnpla6; [7]): 0.028
- spectral counts, test compound (Pnpla7): 34 (inactive)
- p value vs vehicle (Pnpla7; [7]): 0.656
- spectral counts, test compound (Prcp): 99.7 (inactive)
- p value vs vehicle (Prcp; [7]): 0.659
- spectral counts, test compound (Lipa): 3 (inactive)
- p value vs vehicle (Lipa; [7]): 0.482
- spectral counts, test compound (Abhd12): 24.3 (inactive)
- p value vs vehicle (Abhd12; [7]): 0.363
- spectral counts, test compound (Dpp9): 62 (inactive)
- p value vs vehicle (Dpp9; [7]): 0.978
- spectral counts, test compound (Elane): 28.3 (inactive)
- p value vs vehicle (Elane; [7]): 0.242
- spectral counts, test compound (Tpp2): 21 (inactive)
- p value vs vehicle (Tpp2; [7]): 0.018
- spectral counts, test compound (Lipe): 39.7 (inactive)
- p value vs vehicle (Lipe; [7]): 0.014
- spectral counts, test compound ([2]; Lypla1, stronger effect = lower value): 51.7 (inactive)
- p value vs vehicle ([2]; Lypla1, significance of hydrolase inhibition, stronger effect = lower value): 0.676
- spectral counts, test compound (Acot1): 25.7 (inactive)
- p value vs vehicle (Acot1; [7]): 0.22
- spectral counts, test compound (Lypla2): 89.3 (inactive)
- p value vs vehicle (Lypla2; [7]): 0.688
- spectral counts, test compound ([3]; Pla2g7, stronger effect = lower value): 17.7 (inactive)
- p value vs vehicle ([3]; Pla2g7, significance of hydrolase inhibition, stronger effect = lower value): 0.115
- spectral counts, test compound (Lpl): 58.3 (inactive)
- p value vs vehicle (Lpl; [7]): 0.211
- spectral counts, test compound (Prepl): 4.33 (inactive)
- p value vs vehicle (Prepl; [7]): 0.101
- spectral counts, test compound [4]: 13.3 (inactive)
- p value vs vehicle [4, 7]: 0.911
- spectral counts, test compound (Magl): 18 (inactive)
- p value vs vehicle (Magl; [7]): 0.937
- spectral counts, test compound (Pafah1b2): 28.3 (inactive)
- p value vs vehicle (Pafah1b2; [7]): 0.6
- spectral counts, test compound (Ctsa): 86.7 (inactive)
- p value vs vehicle (Ctsa; [7]): 0.035
- spectral counts, test compound [5]: 13.7 (inactive)
- p value vs vehicle [5, 7]: 0.28
- spectral counts, test compound (Aoah): 14.7 (inactive)
- p value vs vehicle (Aoah; [7]): 0.53
- spectral counts, test compound (Apeh): 148 (inactive)
- p value vs vehicle (Apeh; [7]): 0.187
- spectral counts, test compound (Pafah1b3): 21.7 (inactive)
- p value vs vehicle (Pafah1b3; [7]): 0.409
- spectral counts, test compound [6]: 0.667
- p value vs vehicle [6, 7]: 0.006
- spectral counts, test compound (Fasn): 75.7 (inactive)
- p value vs vehicle (Fasn; [7]): 0.026
- spectral counts, test compound (KIAA1363): 167 (inactive)
- p value vs vehicle (KIAA1363; [7]): 0.699
- spectral counts, test compound (Ctsg): 36.3 (inactive)
- p value vs vehicle (Ctsg; [7]): 0.101
SMILES: COc1ccc(-c2ccc(-c3cn(C(=O)N4CCCCC4c4ccccc4)nn3)cc2)cc1 (stereo unspecified)
